Measured values published in article PMC5622171 (Nature Communications, 2017).

What was measured:
Assay in all cases: KINOMEscan kinase profiling
Assay type in all cases: binding
STK35 = biological target: T1, STK35 (Homo sapiens, UniProt Q8TDR2); settings: read-out: %Inhibition by 10 μM SPA70
T1 construct: purchased DiscoverX (Ambit Biosciences) KINOMEscan
Outline: (§1)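 KINOMEscan profiling followed a published protocol. Kinases whose inhibition exceeded a set cut-off were then tested in a dilution series beginning at 30 µM.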

ITK = biological target: T2, ITK (Homo sapiens, UniProt Q08881)
T2 construct: purchased DiscoverX (Ambit Biosciences) KINOMEscan
Outline: as §1

CHEK1 = biological target: T3, CHEK1 (Homo sapiens, UniProt O14757)
T3 construct: purchased DiscoverX (Ambit Biosciences) KINOMEscan
Outline: as §1

CSNK1G1 = biological target: T4, CSNK1G1 (Homo sapiens, UniProt Q9HCP0)
T4 construct: purchased DiscoverX (Ambit Biosciences) KINOMEscan
T4 sequence (Q9HCP0 whole entry): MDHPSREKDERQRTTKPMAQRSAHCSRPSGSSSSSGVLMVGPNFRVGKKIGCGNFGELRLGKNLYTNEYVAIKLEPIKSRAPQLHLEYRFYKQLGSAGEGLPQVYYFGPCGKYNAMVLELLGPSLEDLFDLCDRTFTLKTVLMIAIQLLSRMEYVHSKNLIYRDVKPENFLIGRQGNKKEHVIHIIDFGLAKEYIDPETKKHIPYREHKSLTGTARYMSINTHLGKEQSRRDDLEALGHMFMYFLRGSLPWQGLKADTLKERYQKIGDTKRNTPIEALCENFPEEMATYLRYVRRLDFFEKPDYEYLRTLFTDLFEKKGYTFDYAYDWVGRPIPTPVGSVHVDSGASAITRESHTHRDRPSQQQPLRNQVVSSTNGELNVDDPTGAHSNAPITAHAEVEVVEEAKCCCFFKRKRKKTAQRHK
Outline: as §1

SIK = biological target: T5, SIK (Homo sapiens, UniProt P57059)
T5 construct: purchased DiscoverX (Ambit Biosciences) KINOMEscan
Outline: as §1

YSK4 = biological target: T6, YSK4 (Homo sapiens, UniProt Q56UN5); settings: read-out: %Inhibition by 10 μM SPA70
T6 construct: purchased DiscoverX (Ambit Biosciences) KINOMEscan
Outline: as §1

[1] = biological target: T7, JAK3(JH1domain-catalytic) (Homo sapiens, UniProt P52333); settings: read-out: %Inhibition by 10 μM SPA70
T7 construct: JAK3(JH1domain-catalytic); purchased DiscoverX (Ambit Biosciences) KINOMEscan
Outline: as §1

MST2 = biological target: T8, MST2 (Homo sapiens, UniProt Q13188)
T8 construct: purchased Ambit Biosciences, now part of DiscoveryX
T8 sequence (Q13188 whole entry): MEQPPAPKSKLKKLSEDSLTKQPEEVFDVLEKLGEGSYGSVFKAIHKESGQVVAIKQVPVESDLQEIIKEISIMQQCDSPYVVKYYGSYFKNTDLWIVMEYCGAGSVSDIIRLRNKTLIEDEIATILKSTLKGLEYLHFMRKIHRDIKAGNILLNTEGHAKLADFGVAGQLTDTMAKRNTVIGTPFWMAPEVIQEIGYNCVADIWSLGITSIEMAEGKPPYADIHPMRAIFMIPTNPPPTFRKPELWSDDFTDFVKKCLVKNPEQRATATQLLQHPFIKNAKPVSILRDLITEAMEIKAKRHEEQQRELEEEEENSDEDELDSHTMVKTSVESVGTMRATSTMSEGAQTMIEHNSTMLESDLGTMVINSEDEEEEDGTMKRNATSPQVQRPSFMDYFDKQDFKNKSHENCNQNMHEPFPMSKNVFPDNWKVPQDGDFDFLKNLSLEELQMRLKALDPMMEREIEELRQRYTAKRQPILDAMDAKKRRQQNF
Outline: as §1

TBK1 = biological target: T9, TBK1 (Homo sapiens, UniProt Q9UHD2); settings: read-out: %Inhibition by 10 μM SPA70
T9 construct: purchased DiscoverX (Ambit Biosciences) KINOMEscan
Outline: as §1

DDR1 = biological target: T10, DDR1 (Homo sapiens, UniProt Q08345); settings: read-out: %Inhibition by 10 μM SPA70
T10 construct: purchased DiscoverX (Ambit Biosciences) KINOMEscan
Outline: as §1

CAMKK2 = biological target: T11, CAMKK2 (Homo sapiens, UniProt Q96RR4); settings: read-out: %Inhibition by 10 μM SPA70
T11 construct: purchased DiscoverX (Ambit Biosciences) KINOMEscan
Outline: as §1

CLK4 = biological target: T12, CLK4 (Homo sapiens, UniProt Q9HAZ1); settings: read-out: %Inhibition by 10 μM SPA70
T12 construct: purchased DiscoverX (Ambit Biosciences) KINOMEscan
Outline: as §1

FAK = biological target: T13, FAK (Homo sapiens, UniProt Q05397); settings: read-out: %Inhibition by 10 μM SPA70
T13 construct: purchased DiscoverX (Ambit Biosciences) KINOMEscan
Outline: as §1

CSNK2A1 = biological target: T14, CSNK2A1 (Homo sapiens, UniProt P68400); settings: read-out: %Inhibition by 10 μM SPA70
T14 construct: purchased DiscoverX (Ambit Biosciences) KINOMEscan
Outline: as §1

ACVR2B = biological target: T15, ACVR2B (Homo sapiens, UniProt Q13705)
T15 construct: purchased DiscoverX (Ambit Biosciences) KINOMEscan
Outline: as §1

NEK5 = biological target: T16, NEK5 (Homo sapiens, UniProt Q6P3R8); settings: read-out: %Inhibition by 10 μM SPA70
T16 construct: purchased DiscoverX (Ambit Biosciences) KINOMEscan
Outline: as §1

EPHB1 = biological target: T17, EPHB1 (Homo sapiens, UniProt P54762); settings: read-out: %Inhibition by 10 μM SPA70
T17 construct: purchased DiscoverX (Ambit Biosciences) KINOMEscan
Outline: as §1

CAMK1G = biological target: T18, CAMK1G (Homo sapiens, UniProt Q96NX5); settings: read-out: %Inhibition by 10 μM SPA70
T18 construct: purchased DiscoverX (Ambit Biosciences) KINOMEscan
Outline: as §1

TAOK1 = biological target: T19, TAOK1 (Homo sapiens, UniProt Q7L7X3); settings: read-out: %Inhibition by 10 μM SPA70
T19 construct: purchased DiscoverX (Ambit Biosciences) KINOMEscan
Outline: as §1

CSNK1G3 = biological target: T20, CSNK1G3 (Homo sapiens, UniProt Q9Y6M4)
T20 construct: purchased DiscoverX (Ambit Biosciences) KINOMEscan
Outline: as §1

RAF1 = biological target: T21, RAF1 (Homo sapiens, UniProt P04049); settings: read-out: %Inhibition by 10 μM SPA70
T21 construct: purchased DiscoverX (Ambit Biosciences) KINOMEscan
T21 sequence (P04049 whole entry): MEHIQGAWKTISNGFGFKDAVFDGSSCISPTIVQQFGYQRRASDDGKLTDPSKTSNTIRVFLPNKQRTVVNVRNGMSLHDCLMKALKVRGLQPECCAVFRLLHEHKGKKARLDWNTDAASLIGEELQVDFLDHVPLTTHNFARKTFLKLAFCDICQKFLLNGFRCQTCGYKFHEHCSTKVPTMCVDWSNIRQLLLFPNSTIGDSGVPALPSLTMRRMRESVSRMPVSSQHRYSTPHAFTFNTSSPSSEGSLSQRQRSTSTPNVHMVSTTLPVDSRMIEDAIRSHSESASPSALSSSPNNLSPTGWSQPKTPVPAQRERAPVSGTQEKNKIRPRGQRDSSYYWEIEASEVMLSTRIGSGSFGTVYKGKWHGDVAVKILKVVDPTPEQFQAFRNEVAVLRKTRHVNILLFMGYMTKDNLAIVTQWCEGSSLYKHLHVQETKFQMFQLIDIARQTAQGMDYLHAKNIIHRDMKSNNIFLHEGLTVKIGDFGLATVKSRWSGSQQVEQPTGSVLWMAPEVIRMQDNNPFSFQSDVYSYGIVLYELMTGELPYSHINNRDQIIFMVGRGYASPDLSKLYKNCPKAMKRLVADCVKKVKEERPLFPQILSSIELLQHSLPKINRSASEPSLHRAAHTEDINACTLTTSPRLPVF
Outline: as §1

PLK3 = biological target: T22, PLK3 (Homo sapiens, UniProt Q9H4B4); settings: read-out: %Inhibition by 10 μM SPA70
T22 construct: purchased DiscoverX (Ambit Biosciences) KINOMEscan
T22 sequence (Q9H4B4 whole entry): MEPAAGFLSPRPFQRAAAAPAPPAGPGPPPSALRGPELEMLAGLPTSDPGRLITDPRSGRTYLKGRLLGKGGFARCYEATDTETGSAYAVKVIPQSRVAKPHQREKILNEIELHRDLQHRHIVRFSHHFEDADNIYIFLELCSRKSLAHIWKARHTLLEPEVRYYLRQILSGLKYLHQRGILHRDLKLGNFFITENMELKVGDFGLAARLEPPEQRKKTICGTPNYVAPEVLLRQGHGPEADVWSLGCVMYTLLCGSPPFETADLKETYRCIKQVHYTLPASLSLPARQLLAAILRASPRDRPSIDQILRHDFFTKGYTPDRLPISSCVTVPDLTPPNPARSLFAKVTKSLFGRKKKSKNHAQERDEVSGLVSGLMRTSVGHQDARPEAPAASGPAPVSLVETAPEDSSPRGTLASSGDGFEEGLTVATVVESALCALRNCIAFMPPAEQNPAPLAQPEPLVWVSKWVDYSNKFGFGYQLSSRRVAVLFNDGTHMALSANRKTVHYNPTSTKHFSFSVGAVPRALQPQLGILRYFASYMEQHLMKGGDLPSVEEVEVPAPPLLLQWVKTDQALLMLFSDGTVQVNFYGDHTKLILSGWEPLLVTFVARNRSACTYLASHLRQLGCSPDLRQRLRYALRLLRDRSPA
Outline: as §1

BMPR1B = biological target: T23, BMPR1B (Homo sapiens, UniProt O00238); settings: read-out: %Inhibition by 10 μM SPA70
T23 construct: purchased DiscoverX (Ambit Biosciences) KINOMEscan
T23 sequence (O00238 14-502): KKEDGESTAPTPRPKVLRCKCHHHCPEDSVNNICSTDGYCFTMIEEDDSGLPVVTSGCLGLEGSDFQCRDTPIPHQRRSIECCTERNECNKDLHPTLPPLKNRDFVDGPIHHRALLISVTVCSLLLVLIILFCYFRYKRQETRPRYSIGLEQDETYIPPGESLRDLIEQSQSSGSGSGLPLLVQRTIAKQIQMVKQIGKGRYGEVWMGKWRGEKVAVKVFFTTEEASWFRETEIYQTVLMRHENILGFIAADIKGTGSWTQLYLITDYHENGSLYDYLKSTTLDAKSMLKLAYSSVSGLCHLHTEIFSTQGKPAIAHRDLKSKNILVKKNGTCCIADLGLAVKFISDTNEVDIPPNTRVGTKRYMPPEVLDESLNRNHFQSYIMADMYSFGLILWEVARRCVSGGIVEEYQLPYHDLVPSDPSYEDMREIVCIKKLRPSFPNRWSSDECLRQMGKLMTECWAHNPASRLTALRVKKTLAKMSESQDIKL
Outline: as §1

YANK1 = biological target: T24, YANK1 (Homo sapiens, UniProt Q8WU08); settings: read-out: %Inhibition by 10 μM SPA70
T24 construct: purchased DiscoverX (Ambit Biosciences) KINOMEscan
Outline: as §1

MYO3A = biological target: T25, MYO3A (Homo sapiens, UniProt Q8NEV4); settings: read-out: %Inhibition by 10 μM SPA70
T25 construct: purchased DiscoverX (Ambit Biosciences) KINOMEscan
Outline: as §1

MLCK = biological target: T26, MLCK (Homo sapiens, UniProt Q32MK0); settings: read-out: %Inhibition by 10 μM SPA70
T26 construct: purchased DiscoverX (Ambit Biosciences) KINOMEscan
Outline: as §1

MKNK2 = biological target: T27, MKNK2 (Homo sapiens, UniProt Q9HBH9); settings: read-out: %Inhibition by 10 μM SPA70
T27 construct: purchased DiscoverX (Ambit Biosciences) KINOMEscan
Outline: as §1

PCTK3 = biological target: T28, PCTK3 (Homo sapiens, UniProt Q07002); settings: read-out: %Inhibition by 10 μM SPA70
T28 construct: purchased DiscoverX (Ambit Biosciences) KINOMEscan
Outline: as §1

MRCKB = biological target: T29, MRCKB (Homo sapiens, UniProt Q9Y5S2); settings: read-out: %Inhibition by 10 μM SPA70
T29 construct: purchased DiscoverX (Ambit Biosciences) KINOMEscan
Outline: as §1

FLT1 = biological target: T30, FLT1 (Homo sapiens, UniProt P17948); settings: read-out: %Inhibition by 10 μM SPA70
T30 construct: purchased DiscoverX (Ambit Biosciences) KINOMEscan
Outline: as §1

CAMK1D = biological target: T31, CAMK1D (Homo sapiens, UniProt Q8IU85); settings: read-out: %Inhibition by 10 μM SPA70
T31 construct: purchased DiscoverX (Ambit Biosciences) KINOMEscan
Outline: as §1

AXL = biological target: T32, AXL (Homo sapiens, UniProt P30530); settings: read-out: %Inhibition by 10 μM SPA70
T32 construct: purchased DiscoverX (Ambit Biosciences) KINOMEscan
T32 sequence (P30530 26-894): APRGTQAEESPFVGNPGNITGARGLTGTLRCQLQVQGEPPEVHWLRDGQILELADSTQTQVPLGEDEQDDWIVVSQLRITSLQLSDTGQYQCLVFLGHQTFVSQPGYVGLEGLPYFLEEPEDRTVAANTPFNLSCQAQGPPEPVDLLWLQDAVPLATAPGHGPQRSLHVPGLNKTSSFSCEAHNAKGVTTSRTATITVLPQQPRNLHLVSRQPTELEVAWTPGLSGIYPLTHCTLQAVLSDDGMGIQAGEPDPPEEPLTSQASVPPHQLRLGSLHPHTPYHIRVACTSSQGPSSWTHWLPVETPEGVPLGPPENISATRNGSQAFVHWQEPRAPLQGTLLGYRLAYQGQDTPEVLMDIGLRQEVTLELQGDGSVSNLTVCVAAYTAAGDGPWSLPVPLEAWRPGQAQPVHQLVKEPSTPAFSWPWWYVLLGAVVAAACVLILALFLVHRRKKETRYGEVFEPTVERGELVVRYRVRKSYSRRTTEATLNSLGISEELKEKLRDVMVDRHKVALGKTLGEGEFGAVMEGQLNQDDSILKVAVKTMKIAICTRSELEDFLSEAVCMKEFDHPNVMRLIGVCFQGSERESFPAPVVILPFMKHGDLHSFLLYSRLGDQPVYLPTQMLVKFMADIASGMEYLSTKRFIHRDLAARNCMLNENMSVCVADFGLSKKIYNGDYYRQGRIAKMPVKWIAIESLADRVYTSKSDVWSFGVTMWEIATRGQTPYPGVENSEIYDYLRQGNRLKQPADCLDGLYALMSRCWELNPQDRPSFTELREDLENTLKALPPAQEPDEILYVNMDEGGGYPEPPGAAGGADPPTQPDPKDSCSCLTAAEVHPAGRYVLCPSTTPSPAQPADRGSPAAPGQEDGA
Outline: as §1

CDKL5 = biological target: T33, CDKL5 (Homo sapiens, UniProt O76039); settings: read-out: %Inhibition by 10 μM SPA70
T33 construct: purchased DiscoverX (Ambit Biosciences) KINOMEscan
T33 sequence (O76039 whole entry): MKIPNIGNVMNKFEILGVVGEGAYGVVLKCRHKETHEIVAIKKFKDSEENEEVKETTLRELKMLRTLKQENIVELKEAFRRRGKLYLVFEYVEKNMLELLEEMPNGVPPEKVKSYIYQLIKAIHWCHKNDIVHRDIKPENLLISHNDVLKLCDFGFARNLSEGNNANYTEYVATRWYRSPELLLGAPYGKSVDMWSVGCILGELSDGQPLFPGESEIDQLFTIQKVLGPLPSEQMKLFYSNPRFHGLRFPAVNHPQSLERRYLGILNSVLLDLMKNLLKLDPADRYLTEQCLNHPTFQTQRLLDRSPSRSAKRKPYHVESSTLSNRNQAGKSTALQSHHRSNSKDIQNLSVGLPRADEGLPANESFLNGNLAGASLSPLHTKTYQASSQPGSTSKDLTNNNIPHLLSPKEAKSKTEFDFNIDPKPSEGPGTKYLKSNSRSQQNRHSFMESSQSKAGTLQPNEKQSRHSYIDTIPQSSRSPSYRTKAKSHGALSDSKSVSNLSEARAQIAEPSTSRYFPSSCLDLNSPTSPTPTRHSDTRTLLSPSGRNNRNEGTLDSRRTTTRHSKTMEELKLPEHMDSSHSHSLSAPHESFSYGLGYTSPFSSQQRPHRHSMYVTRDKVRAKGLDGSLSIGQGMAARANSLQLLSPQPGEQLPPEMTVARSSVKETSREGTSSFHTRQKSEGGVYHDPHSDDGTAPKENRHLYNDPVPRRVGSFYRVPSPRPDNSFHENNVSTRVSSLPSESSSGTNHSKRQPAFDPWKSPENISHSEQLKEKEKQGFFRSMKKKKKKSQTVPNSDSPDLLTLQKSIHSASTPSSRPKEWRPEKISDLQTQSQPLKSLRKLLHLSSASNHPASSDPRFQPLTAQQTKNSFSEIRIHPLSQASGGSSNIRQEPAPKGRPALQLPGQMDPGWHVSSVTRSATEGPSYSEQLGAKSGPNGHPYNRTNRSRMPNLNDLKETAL
Outline: as §1

BRAF = biological target: T34, BRAF (Homo sapiens, UniProt P15056); settings: read-out: %Inhibition by 10 μM SPA70
T34 construct: purchased DiscoverX (Ambit Biosciences) KINOMEscan
Outline: as §1

EPHB6 = biological target: T35, EPHB6 (Homo sapiens, UniProt O15197); settings: read-out: %Inhibition by 10 μM SPA70
T35 construct: purchased DiscoverX (Ambit Biosciences) KINOMEscan
Outline: as §1

MEK3 = biological target: T36, MEK3 (Homo sapiens, UniProt P46734); settings: read-out: %Inhibition by 10 μM SPA70
T36 construct: purchased DiscoverX (Ambit Biosciences) KINOMEscan
T36 sequence (P46734 whole entry): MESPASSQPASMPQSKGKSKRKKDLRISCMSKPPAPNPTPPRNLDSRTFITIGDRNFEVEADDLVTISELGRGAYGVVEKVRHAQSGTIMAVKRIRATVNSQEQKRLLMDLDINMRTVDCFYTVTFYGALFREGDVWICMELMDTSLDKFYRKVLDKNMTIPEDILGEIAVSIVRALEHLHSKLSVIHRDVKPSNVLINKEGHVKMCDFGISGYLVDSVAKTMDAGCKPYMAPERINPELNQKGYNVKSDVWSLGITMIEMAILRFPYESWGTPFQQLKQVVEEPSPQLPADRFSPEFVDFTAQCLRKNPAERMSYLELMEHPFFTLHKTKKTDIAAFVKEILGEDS
Outline: as §1

SRMS = biological target: T37, SRMS (Homo sapiens, UniProt Q9H3Y6); settings: read-out: %Inhibition by 10 μM SPA70
T37 construct: purchased DiscoverX (Ambit Biosciences) KINOMEscan
Outline: as §1

LTK = biological target: T38, LTK (Homo sapiens, UniProt P29376); settings: read-out: %Inhibition by 10 μM SPA70
T38 construct: purchased DiscoverX (Ambit Biosciences) KINOMEscan
Outline: as §1

ACVRL1 = biological target: T39, ACVRL1 (Homo sapiens, UniProt P37023); settings: read-out: %Inhibition by 10 μM SPA70
T39 construct: purchased DiscoverX (Ambit Biosciences) KINOMEscan
Outline: as §1

PLK4 = biological target: T40, PLK4 (Homo sapiens, UniProt O00444); settings: read-out: %Inhibition by 10 μM SPA70
T40 construct: purchased DiscoverX (Ambit Biosciences) KINOMEscan
Outline: as §1

FGFR3 = biological target: T41, FGFR3 (Homo sapiens, UniProt P22607); settings: read-out: %Inhibition by 10 μM SPA70
T41 construct: purchased DiscoverX (Ambit Biosciences) KINOMEscan
Outline: as §1

MAPKAPK5 = biological target: T42, MAPKAPK5 (Homo sapiens, UniProt Q8IW41); settings: read-out: %Inhibition by 10 μM SPA70
T42 construct: purchased DiscoverX (Ambit Biosciences) KINOMEscan
Outline: as §1

SMILES: COc1ccc(OC)c(-n2nnc(S(=O)(=O)c3ccc(C(C)(C)C)cc3)c2C)c1 [SPA70]
- inhibition at 10 µM (STK35): 0%
- %Inhibition by 10 μM SPA70 (ITK): 0%
- %Inhibition by 10 μM SPA70 (CHEK1): 8%
- %Inhibition by 10 μM SPA70 (CSNK1G1): 0%
- %Inhibition by 10 μM SPA70 (SIK): 0%
- inhibition at 10 µM (YSK4): 0%
- inhibition at 10 µM [1]: 5%
- Kd (MST2; 11-point 3-fold serial dilutions starting from 30 µM): > 30 µM
- inhibition at 10 µM (MST2; read-out: %Inhibition by 10 μM SPA70): 62%
- inhibition at 10 µM (TBK1): 0%
- inhibition at 10 µM (DDR1): 0%
- inhibition at 10 µM (CAMKK2): 0%
- inhibition at 10 µM (CLK4): 4%
- inhibition at 10 µM (FAK): 6%
- inhibition at 10 µM (CSNK2A1): 15%
- %Inhibition by 10 μM SPA70 (ACVR2B): 0%
- inhibition at 10 µM (NEK5): 0%
- inhibition at 10 µM (EPHB1): 0%
- inhibition at 10 µM (CAMK1G): 25%
- inhibition at 10 µM (TAOK1): 15%
- %Inhibition by 10 μM SPA70 (CSNK1G3): 0%
- inhibition at 10 µM (RAF1): 19%
- inhibition at 10 µM (PLK3): 33%
- inhibition at 10 µM (BMPR1B): 0%
- inhibition at 10 µM (YANK1): 0%
- inhibition at 10 µM (MYO3A): 0%
- inhibition at 10 µM (MLCK): 0%
- inhibition at 10 µM (MKNK2): 6%
- inhibition at 10 µM (PCTK3): 9%
- inhibition at 10 µM (MRCKB): 0%
- inhibition at 10 µM (FLT1): 0%
- inhibition at 10 µM (CAMK1D): 20%
- inhibition at 10 µM (AXL): 0%
- inhibition at 10 µM (CDKL5): 8%
- inhibition at 10 µM (BRAF): 0%
- inhibition at 10 µM (EPHB6): 0%
- inhibition at 10 µM (MEK3): 0%
- inhibition at 10 µM (SRMS): 0%
- inhibition at 10 µM (LTK): 6%
- inhibition at 10 µM (ACVRL1): 6%
- inhibition at 10 µM (PLK4): 9%
- inhibition at 10 µM (FGFR3): 0%
- inhibition at 10 µM (MAPKAPK5): 12%
